In paper PMC6112376, “Comprehensive Analyses and Prioritization of Tox21 10K Chemicals Affecting Mitochondrial Function by in-Depth Mechanistic Studies” (Environmental Health Perspectives, 2018):
Counter-ions that a name gives are not always drawn. Like-named read-outs stand apart in the source and are kept apart here.

Assays:
HepG2 cells [1] = settings: cited from earlier work; for IC50: read-out: MMP assays IC50 (µM), qHTS-HepG2
HepG2 cells [2] = settings: for IC50: read-out: MMP assays IC50 (µM) HepG2
rat primary hepatocytes [3] = assay: MMP assay in rat primary hepatocytes; settings: for IC50: read-out: MMP assays IC50 (µM) Rat Hepatocytes
rat primary hepatocytes [4] = system: rat primary hepatocytes

Row | SMILES | MMP assays efficacy (%) qHTS-HepG2 (HepG2 cells [1]) | IC50 (HepG2 cells [1]) [µM] | MMP assays IC50 (µM) HepG2 (HepG2 cells [2]) | MMP assays efficacy (%) HepG2 (HepG2 cells [2]) | IC50 (rat primary hepatocytes [3]; Rattus norvegicus, Hepatocyte) [µM] | MMP assays efficacy (%) Rat Hepatocytes (rat primary hepatocytes [4]) | IC50 (HepG2 cells [2]) [µM] | IC50 (rat primary hepatocytes [3]) [µM] | MMP assays IC50 (µM) Rat Hepatocytes (rat primary hepatocytes [3]) | MMP assays IC50 (µM) qHTS-HepG2 (HepG2 cells [1])
1 | CC1(C)[C@@H](O)CC[C@]2(C)[C@H]3C(=O)C=C4[C@@H]5C[C@@](C)(C(=O)O)CC[C@]5(C)CC[C@@]4(C)[C@]3(C)CC[C@@H]12 [Glycyrrhetinic acid] | -88±53% | 40.1 ± 9.34 | inactive | inactive | 15.6 ± 2.52 | -44±24% | – | – | – | –
2 | CC(=O)[C@]1(O)Cc2c(O)c3c(c(O)c2[C@@H](O[C@H]2C[C@H](N)[C@H](O)[C@H](C)O2)C1)C(=O)c1ccccc1C3=O [Idarubicin hydrochloride] | -124±48% | 6.83 ± 1.46 | inactive | inactive | 27 ± 10.7 | -38±9% | – | – | – | –
3 | O=C1C(I)=CC(=C(c2cc(I)c(O)c(I)c2)c2ccccc2C(=O)O)C=C1I [Iodophthalein sodium] | -82±5% | 10.8 ± 3.91 | – | -97% | – | -107±27% | 6.9 | 8.73 ± 1 | – | –
4 | CC(=O)O[C@H]1C[C@H](O[C@H]2[C@@H](O)C[C@H](O[C@H]3[C@@H](O)C[C@H](O[C@H]4CC[C@@]5(C)[C@H](CC[C@@H]6[C@@H]5CC[C@]5(C)[C@@H](C7=CC(=O)OC7)[C@@H](O)C[C@]65O)C4)O[C@@H]3C)O[C@@H]2C)O[C@H](C)[C@H]1O[C@@H]1O[C@H](CO)[C@@H](O)[C@H](O)[C@H]1O [Lanatoside B] | -68±14% | 1.1 ± 0.2 | – | -96% | – | inactive | 0.69 | – | inactive | –
5 | Cc1cccc(C)c1OCC(=O)N[C@@H](Cc1ccccc1)[C@@H](O)C[C@H](Cc1ccccc1)NC(=O)[C@H](C(C)C)N1CCCNC1=O [Lopinavir;ABT-738] | -66±16% | 32.7 ± 1.32 | inactive | inactive | – | -27±0% | – | 15.4 ± 21.8 | – | –
6 | CN(C)c1ccc(C(=C2C=CC(=[N+](C)C)C=C2)c2ccccc2)cc1.CN(C)c1ccc(C(=C2C=CC(=[N+](C)C)C=C2)c2ccccc2)cc1.O=C(O)C(=O)O.O=C([O-])C(=O)O.O=C([O-])C(=O)O [Malachite green oxalate] | -100±20% | 2.1 ± 1.87 | – | -65% | – | -44±26% | 27.5 | 8.67 ± 12.3 | – | –
7 | Cc1cnc(NC(=O)C2=C(O)c3ccccc3S(=O)(=O)N2C)s1 [Meloxicam] | – | 14.5 | inactive | inactive | – | inactive | – | – | inactive | –
8 | Cc1cccc(C)c1Nc1ncccc1C(=O)O [Metanixin] | -122±21% | 26 ± 2.11 | – | -101% | – | -93±28% | 21.8 | 21 ± 1.37 | – | –
9 | Cc1oc(C)c(C(=O)Nc2ccccc2)c1C [Methfuroxam] | -69±12% | 25.8 ± 1.71 | – | -48% | – | inactive | 17.8 | – | inactive | –
10 | COc1cc(Cl)ccc1Oc1ccc(Cl)cc1Cl [Methyl triclosan] | -79±13% | 25.5 ± 1.67 | – | -95% | – | -95±27% | 39.8 | 45.9 ± 14.7 | – | –
11 | CN(C)c1ccc2nc3ccc(=[N+](C)C)cc-3sc2c1 [Methylene blue trihydrate] | -67±11% | 1.31 ± 0.79 | – | -69% | 7.29 ± 7.49 | -93±3% | 4.82 | – | – | –
12 | CC(=O)O[Si](C)(OC(C)=O)OC(C)=O [Methylsilanetriyl triacetate] | -67±10% | 29.1 ± 16.4 | inactive | inactive | – | inactive | – | – | inactive | –
13 | CCCCCCCCCCCCCC[n+]1ccc(C)cc1.[Cl-] [Miripirium chloride] | -86±9% | 16.4 ± 4.01 | – | -121% | – | -106±27% | – | 19.5 ± 2.25 | – | –
14 | Cc1ccc(S(=O)(=O)NC2CCCCC2)cc1 [N-Cyclohexyl-4-methyl benzenesulfonamide] | -83±10% | 36.1 ± 21 | inactive | inactive | – | -46±15% | – | 38.1 ± 25.6 | – | –
15 | CN(N=O)c1ccc([N+](=O)[O-])cc1 [N-Nitroso-N-methyl-4-nitroaniline] | inactive | – | inactive | inactive | – | -69+6% | – | 20 ± 16.6 | – | inactive
16 | C[C@@H]1C/C=C/C=C/C=C/C=C/[C@H](O[C@@H]2O[C@H](C)[C@@H](O)[C@H](N)[C@@H]2O)C[C@@H]2O[C@](O)(C[C@@H](O)C[C@H]3O[C@@H]3/C=C/C(=O)O1)C[C@H](O)[C@H]2C(=O)O [Natamycin] | inactive | – | inactive | inactive | – | inactive | – | – | inactive | inactive
17 | NC(=O)c1cc([N+](=O)[O-])cc([N+](=O)[O-])c1 [Nitromide] | inactive | – | inactive | inactive | – | inactive | – | – | inactive | inactive
18 | N=C(N)NN=C(/C=C/c1ccc([N+](=O)[O-])o1)/C=C/c1ccc([N+](=O)[O-])o1 [Nitrovin] | -94±2% | 3.27 ± 0.57 | – | -118% | – | -89±11% | 5.48 | 16.4 ± 1.33 | – | –
19 | O=C(NC(=O)c1c(F)cccc1F)Nc1ccc(OC(F)(F)C(F)OC(F)(F)F)c(Cl)c1 (stereo not shown) [Novaluron] | inactive | – | inactive | inactive | – | inactive | – | – | inactive | inactive
20 | CCCCCCCC/C=C\CCCCCCCC(=O)NCc1ccc(O)c(OC)c1 [Olvanil] | -74±8% | 13.5 ± 1.9 | inactive | inactive | – | inactive | – | – | inactive | –
21 | Nc1ccc(/N=N/c2ccccc2)c(N)n1 [Phenazopyridine hydrochloride] | -74±20% | 15.7 ± 3.45 | inactive | inactive | 23.8 ± 1.93 | -59±26% | – | – | – | –
22 | O=C1c2ccccc2C(=O)C1c1ccccc1 [Phenindione] | inactive | – | inactive | inactive | – | inactive | – | – | inactive | inactive
23 | COc1cc([C@@H]2c3cc4c(cc3[C@H](O)[C@H]3COC(=O)[C@@H]23)OCO4)cc(OC)c1OC [Picropodophyllin;AXL-1717/NSC-36407] | -56±10% | 0.14 ± 0.02 | – | -58% | – | inactive | 0.0548 | – | inactive | –
24 | CCc1ccc(CCOc2ccc(CC3SC(=O)NC3=O)cc2)nc1 (stereo not shown) [Pioglitazone hydrochloride] | inactive | – | inactive | inactive | 8.9 ± 9.2 | -69+30% | – | – | – | inactive
25 | O=C(NCc1cccnc1)Nc1ccc([N+](=O)[O-])cc1 [Pyrinuron] | -87±26% | 26.3 ± 1.71 | – | -81% | – | -108±48% | 28.2 | 25.8 ± 10.1 | – | –
26 | O=c1c(O)c(-c2ccc(O)c(O)c2)oc2cc(O)cc(O)c12 [Quercetin dihydrate] | -98±4% | 6.2 ± 2.32 | – | -96% | – | -71±22% | 2.95 | 5.83 ± 4.93 | – | –
27 | O=C(c1ccc(OCCN2CCCCC2)cc1)c1c(-c2ccc(O)cc2)sc2cc(O)ccc12 [Raloxifene hydrochloride] | -98±9% | 6.69 ± 1.65 | – | -127% | – | -87±14% | 7.94 | 20.9 ± 7.23 | – | –
28 | O=C(c1ccc(OCCN2CCCCC2)cc1)c1c(-c2ccc(O)cc2)sc2cc(O)ccc12 [Raloxifene] | -121±25% | 5.05 ± 3.99 | – | -96% | 22.4 ± 24.1 | -92±39% | 17.8 | – | – | –
29 | c1ccc(C2(N3CCCC3)CCCCC2)cc1 [Rolicyclidine] | -97±15% | 22.3 ± 2.32 | inactive | inactive | – | inactive | – | – | inactive | –
